Measured values from paper PMC11314129, “Synthesis, Computational Study, and In Vitro α-Glucosidase Inhibitory Action of Thiourea Derivatives Based on 3-Aminopyridin-2(1H)-Ones” (Molecules, 2024).
Entries after “also recorded” stand apart in the source; their conditions may differ.

Key:
[1] = target: T1, α-glucosidase from Saccharomyces cerevisiae (Saccharomyces cerevisiae, UniProt P53341); assay: biochemical; format: biochemical; settings: for inhibition at 15000 µM: read-out: Inhibitory Activity of Test Compounds at a Concentration of 15 mM Against the α-Glucosidase Enzyme (%); for Inhibitory Activity of Test Compounds at a Concentration of 15 mM Against the α-Glucosidase Enzyme (%) / IC50 (mM): mean ± standard error of the mean; for Inhibitory Activity of Test Compounds at a Concentration of 15 mM Against the α-Glucosidase Enzyme (%): triplets; for IC50 (mM): from graph of enzyme activity vs concentration
T1 construct: purchased Sigma-Aldrich
Method: Antidiabetic activity was assessed by the degree of the inhibition of α-glucosidase activity by the test substances.
The study of the α-glucosidase activity inhibition degree by the test compounds was performed using a standard method with minor modifications.
Antidiabetic activity was assessed by the degree of inhibition of α-glucosidase activity by the test substances. The α-glucosidase enzyme determines the extent to which glucose enters the bloodstream from the gastrointestinal tract. […] The enzyme (α-glucosidase from Saccharomyces cerevisiae, Sigma-Aldrich, St. Louis, MO, USA, 1.0 U/mL) in phosphate-buffered saline was incubated with various concentrations of test compounds at 37 °C for 15 min. All the studied substances were dissolved in 40% DMSO. Then, 5 mM p-nitrophenyl α-d-glucopyranoside was added to the mixture as a substrate. The mixture was incubated at […] for 20 min. The absorbance was measured spectrophotometrically at 405 nm. The sample solution was replaced by 40% DMSO as a control. […] All samples were studied in triplets.
Inhibitory activity was expressed as a percentage (%) according to the degree of inhibition of α-glucosidase in comparison with the negative control. It was calculated using the following formula:
Inhibitory activity (%) = (1 − As/Ac) × 100%, where As is the optical density of the test compound, and Ac is the optical density of control.
The IC50 was determined from the graph of enzyme activity changes depending on the sample concentration.
The statistical processing of the results was carried out using the “Excel 2019” program.

glucose-6-phosphatase = system: glucose-6-phosphatase; design: method as in PMID 33304132; settings: Swiss albino mice, cited from earlier work

T1 sequence (P53341 whole entry): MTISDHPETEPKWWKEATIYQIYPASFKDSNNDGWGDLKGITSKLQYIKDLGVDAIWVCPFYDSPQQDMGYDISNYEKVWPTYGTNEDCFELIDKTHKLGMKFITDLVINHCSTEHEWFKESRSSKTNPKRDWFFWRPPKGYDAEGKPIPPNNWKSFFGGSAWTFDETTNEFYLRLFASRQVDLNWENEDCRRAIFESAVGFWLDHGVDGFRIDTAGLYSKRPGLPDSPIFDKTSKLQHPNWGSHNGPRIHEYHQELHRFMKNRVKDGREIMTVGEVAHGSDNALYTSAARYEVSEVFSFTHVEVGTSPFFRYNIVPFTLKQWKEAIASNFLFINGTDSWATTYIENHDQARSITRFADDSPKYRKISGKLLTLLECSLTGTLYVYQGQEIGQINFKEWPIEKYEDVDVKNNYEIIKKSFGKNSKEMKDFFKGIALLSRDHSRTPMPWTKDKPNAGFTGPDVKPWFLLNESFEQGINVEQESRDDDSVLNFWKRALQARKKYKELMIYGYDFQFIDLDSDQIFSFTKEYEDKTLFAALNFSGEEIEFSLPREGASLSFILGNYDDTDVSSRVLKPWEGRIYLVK

Compound	inhibition at 15000 µM [1]	inhibition of the enzyme glucose-6-phosphatase (glucose-6-phosphatase; streptozotocin diabetes)	safety for use in animals (glucose-6-phosphatase)	IC50 [1]	melting point	inhibitory activity against α-glucosidase (in words) [1]	Inhibitory Activity of Test Compounds at a Concentration of 15 mM Against the α-Glucosidase Enzyme (%) [1]	IC50 (mM) [1]
C[C@H]1O[C@H](O[C@H]2[C@H](O)[C@@H](O)[C@@H](O[C@H]3[C@H](O)[C@@H](O)C(O)O[C@@H]3CO)O[C@@H]2CO)[C@H](O)[C@@H](O)[C@@H]1N[C@H]1C=C(CO)[C@@H](O)[C@H](O)[C@H]1O (stereo partly shown) [Acarbose, reference compound]	46.1 ± 4.6%							
S=C(NC(c1ccccn1)C(Cc1ccccc1)Cc1ccccc1)NC(c1ccccn1)C(Cc1ccccc1)Cc1ccccc1 (stereo not shown) [Compound 4, 1,3-bis(2-benzyl-3-phenyl-1-(pyridine-2-yl)propyl)thiourea]		highest inhibition value	without having any toxic or lethal effects					
C=CCNC(=S)Nc1c(C)cc(C)[nH]c1=O [Compound 8a, 1-allyl-3-(4,6-dimethyl-2-oxo-1,2-dihydropyridin-3-yl)thiourea]	23.3 ± 1.7%			16.6 ± 1.57 mM				
C=CCNC(=S)Nc1c(-c2ccccc2)cc(C)[nH]c1=O [Compound 8b, 1-allyl-3-(6-methyl-2-oxo-4-phenyl-1,2-dihydropyridin-3-yl)thiourea]	26.9 ± 2.5%			19.8 ± 2.55 mM				
C=CCNC(=S)Nc1c(-c2cccs2)cc(C)[nH]c1=O [Compound 8c, 1-Allyl-3-(6-methyl-2-oxo-4-(thiophen-2-yl)-1,2-dihydropyridin-3-yl)thiourea]					289 to 292 °C	did not show inhibitory activity; also recorded: showed no inhibitory activity	No activity	No activity
Cc1cc(C)c(NC(=S)Nc2ccccc2)c(=O)[nH]1 [Compound 9a, 1-(4,6-Dimethyl-2-oxo-1,2-dihydropyridin-3-yl)-3-phenylthiourea]	56.6 ± 2.2%			9.77 ± 0.83 mM	140 to 143 °C			
Cc1cc(-c2ccccc2)c(NC(=S)Nc2ccccc2)c(=O)[nH]1 [Compound 9b, 1-(6-Methyl-2-oxo-4-phenyl-1,2-dihydropyridin-3-yl)-3-phenylthiourea]	35.2 ± 3.4%			21.8 ± 2.65 mM	141 to 144 °C			
Cc1cc(-c2cccs2)c(NC(=S)Nc2ccccc2)c(=O)[nH]1 [Compound 9c, 1-(6-Methyl-2-oxo-4-(thiophen-2-yl)-1,2-dihydropyridin-3-yl)-3-phenylthiourea]	41.2 ± 2.5%				145 to 147 °C			
CC(=O)NC(=S)Nc1c(C)cc(C)[nH]c1=O [Compound 10a, N-((4,6-Dimethyl-2-oxo-1,2-dihydropyridin-3-yl)carbamothioyl)acetamide]					273 to 275 °C	did not show inhibitory activity; also recorded: showed no inhibitory activity	No activity	No activity
CC(=O)NC(=S)Nc1c(-c2ccccc2)cc(C)[nH]c1=O [Compound 10b, N-((6-Methyl-2-oxo-4-phenyl-1,2-dihydropyridin-3-yl)carbamothioyl)acetamide]					249 to 251 °C	did not show inhibitory activity; also recorded: showed no inhibitory activity	No activity	No activity
CC(=O)NC(=S)Nc1c(-c2cccs2)cc(C)[nH]c1=O [Compound 10c, N-((6-Methyl-2-oxo-4-(thiophen-2-yl)-1,2-dihydropyridin-3-yl)carbamothioyl)acetamide]					252 to 254 °C	did not show inhibitory activity; also recorded: showed no inhibitory activity	No activity	No activity
Cc1cc(C)c(NC(=S)NC(=O)c2ccccc2)c(=O)[nH]1 [Compound 11a, N-((4,6-Dimethyl-2-oxo-1,2-dihydropyridin-3-yl)carbamothioyl)benzamide]					230 to 232 °C	did not show inhibitory activity; also recorded: showed no inhibitory activity	No activity	No activity
Cc1cc(-c2ccccc2)c(NC(=S)NC(=O)c2ccccc2)c(=O)[nH]1 [Compound 11b, N-[(6-Methyl-2-oxo-4-phenyl-1,2-dihydropyridin-3-yl)carbamothioyl]benzamide]					218 to 220 °C	did not show inhibitory activity; also recorded: showed no inhibitory activity	No activity	No activity
Cc1cc(-c2cccs2)c(NC(=S)NC(=O)c2ccccc2)c(=O)[nH]1 [Compound 11c, N-((6-Methyl-2-oxo-4-(thiophen-2-yl)-1,2-dihydropyridin-3-yl)carbamothioyl)benzamide]					245 to 249 °C	did not show inhibitory activity; also recorded: showed no inhibitory activity	No activity	No activity
